In patent publication US10246455B2, “Histone deacetylase inhibitors” (Taipei Medical University, priority 2014, dated 2019):

What was measured:
KB-7D (KB resistant) = test: IC50 against human cancer cell lines: KB-7D; details: KB7D, read-out: IC50 ± SD against human cancer cell lines
Experimental: (§2) More specifically, the IC50 values of test compounds were determined by carrying out a fluorimetric histone deacetylase assay following the manufacturer's instructions. For a pan-HDAC assay, HeLa nuclear extracts were used as a source of histone deacetylase (BioVision Inc.). Histone deacetylase isomer inhibition assays were conducted using purified recombinant histone deacetylase proteins of the various isomers (BPS Bioscience Inc.). Reactions were performed in 0.1 mol/L KCl, 20 mmol/L HEPES/NaOH at pH 7.9, 20% glycerol, 0.2 mmol/L DTA, 0.5 mmol/L DTT, and 0.5 mmol/L phenylmethylsulfonylfluoride. […] Reactions were carried out in triplicate for each test compound. Each point represented the mean±SD of replicates.

HDAC 1 = HDAC 1 (Homo sapiens, UniProt Q13547); test: Deacetylase enzyme assay (fluorescence release): HDAC1; assay type: biochemical; details: 24-hour study
Excerpt: (§1) Proteins from cells were extracted and subjected to the western blotting analysis. β-Actin was used as an internal control. The deacetylase enzyme assay was based on a homogeneous fluorescence release assay. […] After fluorophore from the deacetylated substrates, fluorescent signal was detected.

[1] = system: LNCaP-R2 (prostate carcinoma); test: IC50 against human cancer cell lines: LNCaP-R2; details: read-out: IC50 ± SD against human cancer cell lines
KB-VIN10 (KB resistant) = test: IC50 against human cancer cell lines: KB-VIN10; details: Homo sapiens, KB-VIN10, read-out: IC50 ± SD against human cancer cell lines
[2] = system: histone and α-tubulin acetylation in human BJAB B cell lymphoma; test: Western blot: acetylation in BJAB cells; assay type: cell-based
Experimental: More specifically, cells in the logarithmic phase were initially seeded at a density of 1×10^6 in 100 mm^2 dishes. […] Briefly, cells were lysed with the cell lysis reagent CelLytic™ M (Sigma-Aldrich) containing 1 mM DTT, 1 mM PMSF and protease inhibitors for whole-cell lysate preparation. Equal amounts of lysate (on a protein basis) were then differentiated using the SDS-PAGE, blotted on PVDF membranes, conjugated with various specific primary antibodies, and then probed with appropriate secondary antibodies. The immunoreactive bands were detected using the ECL method and visualized on Kodak Bio-MAX MR film.
as §1

H9 (T cell lymphoma) = test: IC50 against human cancer cell lines: H9; details: read-out: IC50 ± SD against human cancer cell lines
[3] = system: human glioblastoma (U87-MG-LucNeo cells) xenograft; test: In vivo antitumor activity against human glioblastoma xenograft tumor: survival; details: intracranial U87 xenograft, Compound 7 50-100 mg/kg p.o.; TMZ 50 mg/kg p.o.
Excerpt: Male athymic nude mice at 5-6 weeks old were obtained from BioLasco (Taiwan) and maintained in a specific-pathogen-free facility. All experimental procedures were approved by the Institute of Animal Care and Use Committee of Taipei Medical University. Each nude mouse was anesthetized with an i.p. injection of xylazine (Sigma) and zolazepam (Zoletil 50, Virbac), and then secured in a stereotaxic frame.

[4] = system: HDACs (p21, p27, histone, and α-tubulin acetylation) in the PC3 xenograft model; test: In vivo HDAC inhibitory assay, PC3 xenograft; details: 25 mg/kg, oral, PC3 xenograft mice
Experimental: Subcutaneous inoculation of 5×10^6 PC3 cells in specific pathogen-free male athymic mice (strain BALB/cAnN.Cg-Foxn1nu/CrlNarl) from the National Laboratory Animal Center, Taiwan, was applied. The mice were subsequently fed under specific pathogen-free conditions and provided with sterile water and food. […] Tumor samples were obtained and frozen in liquid nitrogen before storage in −80° C. Tumor proteins were extracted and subjected to the Western blotting analysis. β-Actin was used as an internal control.

HDAC1-10 = test: SDS-PAGE and western blot analysis: HDAC1-10 in PC3 cells; assay type: cell-based, human; details: 48 hours
Experimental: More specifically, cells in the logarithmic phase were initially seeded at a density of 1×10^6 in 100 mm^2 dishes. […] IC50 indicia of compound in vitro potency) for the indicated times (i.e., 24 and 48 hours), adherent cells were collected for protein extract preparation. Briefly, cells were lysed with the cell lysis reagent CelLytic™ M (Sigma-Aldrich) containing 1 mM DTT, 1 mM PMSF and protease inhibitors for whole-cell lysate preparation. Equal amounts of lysate (on a protein basis) were then differentiated using the SDS-PAGE, blotted on PVDF membranes, conjugated with various specific primary antibodies, and then probed with appropriate secondary antibodies. The immunoreactive bands were detected using the ECL method and visualized on Kodak Bio-MAX MR film. Proteins from cells were extracted and subjected to the western blotting analysis. β-Actin was used as an internal control. The deacetylase enzyme assay was based on a homogeneous fluorescence release assay. […] After fluorophore from the deacetylated substrates, fluorescent signal was detected.

[5] = system: human glioblastoma (U87-MG-LucNeo cells) xenograft; test: Orthotopic tumor size measurement (bioluminescence imaging); assay type: in vivo, mice; details: Compound 7 25 mg/kg versus SAHA 150 mg/kg and TMZ 25 mg/kg
Excerpt: Another parallel set of xenografted nude mice treated with drug or vehicle treatment as described above were used in this experiment.

[6] = system: human glioblastoma (U87MG or GBM8401) cells; test: Cell viability in human glioblastoma in vitro (MTT); assay type: cell-based; details: U-87 MG, U87MG or GBM8401, 30 uM, read-out: reduction of the cell viability
Experimental: U87MG human glioblastoma cell line was treated with Compound 7 and analyzed following the procedure described below.
Cell viability was assessed by an MTT assay. Briefly, cells were incubated with 0.25 mg/mL MTT (Sigma) at 37° C. for 1 hour and the MTT fomazan were measured spectrophotometrically (μQuant, Bio-Tek) at 595 nm after dissolution of the crystals in DMSO.

[7] = system: A549 (non-small-cell lung carcinoma); test: IC50 in human cancer cell lines (inhibiting HDAC): A549; details: Homo sapiens, A549, read-out: IC50, inhibiting HDAC in human cancer cell lines
HSC-3 (oral carcinoma) = test: IC50 in human cancer cell lines (inhibiting HDAC): HSC-3; details: HSC-3, read-out: IC50, inhibiting HDAC in human cancer cell lines
C6 glioma cell line = test: Cell proliferation in C6 glioma in vitro (MTT); assay type: cell-based; details: rat C6 glioma
Excerpt: C6 glioma cell line was obtained from American Type Culture Collection.

TSGH (gastric carcinoma) = test: IC50 in human cancer cell lines (inhibiting HDAC): TSGH; details: read-out: IC50, inhibiting HDAC in human cancer cell lines
Experimental: as §2

Chain of HDAC 1 (Q13547 whole entry, species assumed): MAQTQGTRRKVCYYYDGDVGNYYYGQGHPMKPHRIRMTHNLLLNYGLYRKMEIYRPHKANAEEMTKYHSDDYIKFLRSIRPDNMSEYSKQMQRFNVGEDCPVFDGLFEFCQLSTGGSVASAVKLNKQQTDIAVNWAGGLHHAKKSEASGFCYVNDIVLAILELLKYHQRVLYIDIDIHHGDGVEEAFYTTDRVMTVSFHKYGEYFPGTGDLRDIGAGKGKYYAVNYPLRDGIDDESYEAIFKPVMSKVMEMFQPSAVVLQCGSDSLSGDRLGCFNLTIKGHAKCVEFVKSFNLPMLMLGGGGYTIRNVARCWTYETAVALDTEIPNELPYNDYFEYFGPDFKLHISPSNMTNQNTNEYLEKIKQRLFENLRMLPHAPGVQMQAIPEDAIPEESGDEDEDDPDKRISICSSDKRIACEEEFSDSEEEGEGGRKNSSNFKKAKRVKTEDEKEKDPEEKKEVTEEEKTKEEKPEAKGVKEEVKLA

| Compound | IC50 (KB-7D (KB resistant)) [nM] | concentration inducing inhibition of HDAC 1 (HDAC 1) [nM] | IC50 [1] [nM] | IC50 (KB-VIN10 (KB resistant)) [nM] | histone and α-tubulin acetylation [2] | IC50 (H9 (T cell lymphoma)) [nM] | survival [3] | inhibiting HDACs in vivo (p21, p27, histone, and α-tubulin acetylation) [4] | inhibition of HDAC1-10 activities in PC3 cells (HDAC1-10) | tumor size (bioluminescence imaging) [5] | cytotoxicity at 30 µM [6] [%] | IC50 [7] [nM] | IC50 (HSC-3 (oral carcinoma)) [nM] | inhibition at 30 µM (C6 glioma cell line) [%] | IC50 (TSGH (gastric carcinoma)) [nM] |
| --- | --- | --- | --- | --- | --- | --- | --- | --- | --- | --- | --- | --- | --- | --- | --- |
| COc1ccc(S(=O)(=O)N2CCc3cc(/C=C/C(=O)NO)cnc32)cc1 [Compound 5b, (E)-N-hydroxy-3-(1-(4-methoxyphenylsulfonyl)-2,3-dihydro-1H-pyrrolo[2,3-b]pyridin-5-yl)acrylamide] | 139 ± 26.8 | ≤ 50 | 100 ± 40 | 85 | induced histone and α-tubulin acetylation | 55.4 ± 7.8 | – | – | – | – | – | – | – | – | – |
| O=C(/C=C/c1cccc(S(=O)(=O)n2ccc3cccnc32)c1)NO [Compound 7, (E)-3-(3-(1H-Pyrrolo[2,3-b]pyridin-1-ylsulfonyl)phenyl)-N-hydroxyacrylamide] | – | – | – | – | – | – | extended survival longer than TMZ | effective | inhibited HDAC1-10 activities in PC3 cells in a concentration-dependent manner | decreased the tumor size more than a higher dose of SAHA (150 mg/kg) or the same dose of TMZ (25 mg/kg) | ~70 | 1330 ± 190 | 660 ± 120 | ~50 | 2100 ± 110 |
